Results on seven compounds are retold here after paper PMC11640973, “The Detection of Toxic Amyloid-β Fibril Fragments Through a Surface Plasmon Resonance Immunoassay” (International Journal of Molecular Sciences, 2024).

Some results are limits rather than exact numbers.

One data set relates to SHSY-5Y cells. Kind of data set: MTT toxicity assay on SHSY-5Y cells. Format: cell-based. To be noted: 24 h; for toxic effect (cell viability): Bachem Aβ42, 10 to 100 nM; for cell viability (of control): 10 nM, 95%CI fibrils 67.3–76.0%, fragmented 39.6–48.0%; for cell viability (of control) / cell viability (of controls): Bachem Aβ42, fibrils from 48 h at 37 °C, three sessions each in triplicate; for cell viability (of controls): 30 nM, 95%CI fibrils 52.1–57.3, fragmented 39.7–45.71%; for cell viability versus vehicle control cells: 10 to 100 nM, fibrils ± sonication, p < 0.01, one-way ANOVA. As for the experimental part:
SHSY-5Y cell survival was assessed using the MTT colorimetric assay after exposure to Aβ species—including monomers (t = 0), fibrils, and sonicated fibrils (48 h)—prepared and incubated at a concentration of 100 µM for aggregation. As described in the sample preparation chapter, cells were exposed to these Aβ species at final concentrations of 10, 30, and 100 nM for 24 h. Following exposure, cells were incubated with a culture medium (100 µL/well) containing a 1:10 dilution of Thiazolyl blue tetrazolium bromide (MTT; 4 mg dissolved in 1 mL DPBS). The plates were then placed in the incubator for 3 h. At the end of the incubation, the medium containing MTT was replaced with HCl-Isopropanol (1N HCl diluted 1:25 in 100% isopropanol). The absorbance of the colored solution was measured at 540 nm using a microplate spectrophotometer (F500 Infinity, Tecan, Männedorf, Switzerland).
Statistical calculations were performed using GraphPad Prism (version 9.4; GraphPad Software, Bethesda, MD, USA). Paired t-tests were used to analyze differences between experimental conditions (e.g., Figure 3), while one-way ANOVA followed by Tukey’s post hoc test was applied for multiple group comparisons (e.g., Figure 4). The data are presented as mean ± standard deviation (SD). The statistical significance was defined as p < 0.05.
A general note: Tetrazolium assays rely on reduction of a dye to a coloured formazan, in cell work by metabolically active cells.

The next data set deals with anti-Aβ antibody 4G8. Kind of data set: SPR immunoassay of Aβ42 binding to immobilized anti-Aβ antibody 4G8. An excerpt: This binding profile resembles closely that described previously for a solution containing monomers only. […]
For the present work, we used both the ProteOn™ XPR36 Protein Interaction Array system (Bio-Rad Laboratories, Hercules, CA, USA) and the Sierra SPR®-32 Pro (Bruker, Billerica, MA, USA). The ProteOn™ XPR36 allows for the preparation of six parallel lanes, each representing a different surface on a single chip, with, for instance, five lanes used for ligand (target) immobilization and one designated as a reference. By rotating the chip, each ligand surface can interact with up to six analytes, enabling the simultaneous analysis of up to 36 unique interactions in a single run. The Sierra SPR®-32 Pro is configured with 8 separate channels, each containing four detection spots, one of which serves as a reference spot, enabling analysis with up to 8 samples per run.
The anti-Aβ antibody 4G8 (Signet Laboratories, Emeryville, CA, USA) was immobilized on a CMD50L sensor chip (XanTec bioanalytics, Düsseldorf, Germany) using standard amine coupling chemistry, following standard protocols. A solution of 30 µg/mL 4G8 antibody in 20 mM acetate buffer pH 5.0 was injected for immobilization.
To monitor the aggregation of Aβ42 over time, we followed the general protocol described above. Briefly, Aβ42 was prepared at a final concentration of 50 µM in PBS and incubated at 37 °C. Samples were collected at various time points (0, 6, and 120 h) to capture distinct aggregated forms corresponding to monomers, oligomers/small fibrils, and fibrils. […] The signal from the 4G8-immobilized surface was corrected by subtracting the nonspecific response observed on the empty parallel reference surface.

The conditions of data set [1]: SPR-based approach; ref [21]; cited from earlier work. The text has this:
In order to reliably detect transient oligomeric species in a mixture of aggregated species without sample manipulation, an immunoassay based on surface plasmon resonance (SPR) has been proposed. This method exploits the properties of an anti-Aβ antibody (4G8) for a direct and simultaneous determination of monomers and biologically relevant (i.e., toxic) transient oligomeric species, also distinguishing the latter from large fibrils. SPR is a highly quantitative technique for measuring binding kinetics and determining monomer concentrations. However, in the context of aggregation assays ...

The conditions of data set [2]: Aβ42 compared to Aβ40; ref [35]; cited from earlier work. As for the experimental part:
The lyophilized powder obtained from the synthesis and purification was suspended in 0.02% Trifluoracetic acid (TFA). The final pH of the solution was 2.8, ensuring the stability of the depsi bond and preventing premature conversion to the native peptide. The concentration was measured using UV ...

The conditions of data set [3]: stock solution in 50 mM NaOH (1 mg/mL), −80 °C; ref [38]; cited from earlier work. As for the experimental part:
To further validate our results, we used native forms of Aβ42. Lyophilized recombinant Aβ42 (rPepride) and the synthetic Aβ42 (Bachem) were suspended in a 50 mM NaOH solution (1 mg/mL) following the protocol of Taylor et al., which provides a simple and reliable method for the high-yield preparation of seedless Aβ monomers. […] This validated approach reduces handling variability and ensures reproducibility in experiments.

[4] abbreviates: freshly prepared Aβ42 (t = 0), 5 µM.
[5] abbreviates: freshly prepared Aβ42 (t = 0), 5 µM in PBST (0.005% Tween), flowed over immobilized 4G8.
Where [6] appears, read: incubated 5 days, then one freeze–thaw cycle.

For orientation: koff means the first-order rate constant of dissociation. A higher koff goes with fast dissociation. The term kon denotes a measure of how fast the partners come together. “Aβ42 monomer: freshly prepared Aβ42 solution (t = 0), containing monomers only”: in the data set on SHSY-5Y cells (MTT), the “toxic effect (cell viability)” value is on record as “rule out any toxic effect”. For the same compound, on anti-Aβ antibody 4G8 (Aβ42 monomer binding to immobilized 4G8, t = 0), the “KD (calculated from the ratio koff/kon)” value is “about 140 nM”. In the data set with anti-Aβ antibody 4G8 (setting [4]), the “time to complete dissociation” value was at most 15 min and the “time to saturation of SPR binding signal” value was “≈ 1 min”. Further, in the data set with anti-Aβ antibody 4G8 (setting [5]), the koff came out at 0.0044 s⁻¹ and the kon was found to be 31000 M⁻¹ s⁻¹.
As for `O=C(O[C@@H]1Cc2c(O)cc(O)cc2O[C@@H]1c1cc(O)c(O)c(O)c1)c1cc(O)c(O)c(O)c1` [epigallocatechin gallate], in data set [1], the “effect on formation of Aβ42 oligomers” value is reported as “inhibited”.
Regarding Amyloid-β1–42 [Aβ42], the aggregation propensity entry in data set [2] was “higher aggregation propensity”. In addition, in data set [3], the “stability of monomeric state” value is on record as “at least 40 days”. The “dissociation of most of the binding signal” value in the data set on anti-Aβ antibody 4G8 (50 µM in PBS incubated 6 h at 37 °C, diluted to 5 µM, 15 min dissociation phase) is given as “very slow dissociation”. Further, the “SPR binding signal on immobilized 4G8” value in the data set with anti-Aβ antibody 4G8 (50 µM in PBS incubated 6 h at 37 °C, diluted to 5 µM, versus t = 0) is “marked increase in the SPR binding signal”. Moreover, the “decrease in the monomer signal” value in the data set with anti-Aβ antibody 4G8 (6 h of aggregation, 50 µM in PBS, 37 °C) came to 56%. In the data set with anti-Aβ antibody 4G8 (fragmentation by freeze–thaw or sonication, eight independent experiments, rPeptide, Bachem or depsi-peptide Aβ42, Proteon or Bruker, p = 0.0012 paired t-test), the “oligomer-dependent SPR signal (slow dissociation)” value is “fragmentation-induced increase in SPR-detected Aβ42 oligomers”. For the same compound, the “time to complete dissociation of signal” value in the data set on anti-Aβ antibody 4G8 (incubated 5 days at 37 °C (residual monomers)) is reported as at most 15 min. Besides, the SPR signal result with anti-Aβ antibody 4G8 (incubated 5 days at 37 °C, versus 6 h and freshly prepared) was “much lower SPR signal compared to the solution incubated for 6 h (Figure 2c), and even lower than that of the freshly prepared solution”. Besides, in the data set on anti-Aβ antibody 4G8 (setting [6]), the SPR signals result is on record as “marked increase in the SPR signals” and the “absolute amount of monomers” value is “decreased”.
Turning to “sonicated fibrils: Aβ42 fibrils produced by tip sonication (1 min 10% power 30% cycles)”, in the data set with SHSY-5Y cells (MTT), the “cell viability (of control)” value turned out to be 43.8% and the “cell viability (of controls)” value is 42.7%. The “cell viability versus vehicle control cells” value in the data set with SHSY-5Y cells is recorded as “significantly different from the viability of control cells”. The “fibril toxicity, change by fragmentation” value in the data set with SHSY-5Y cells (sonicated versus unfragmented fibrils, 10 and 30 nM, MTT) is recorded as “significantly increased by fragmentation”.
On to “fibrils: Aβ42 purchased from Bachem, fibrils obtained after 48 h incubation at 37 °C”, for which, in the data set on SHSY-5Y cells (MTT), the “cell viability (of control)” value was found to be 71.6%, the “cell viability (of controls)” value came to 54.73% and the “toxic effect (cell viability)” value is reported as “concentration-dependent toxicity”. Besides, the “cell viability versus vehicle control cells” value with SHSY-5Y cells was “significantly different from the viability of control cells”.
As to “Aβ40: Aβ1–40, fragment of Amyloid Precursor Protein [reference compound]”, the aggregation propensity result in data set [2] is “aggregates more slowly”.
For “fibrillar macroaggregates: Aβ42 incubated 5 days, larger suprafibrillar macroaggregates”, the “recognition of fibrillar macroaggregates by SPR” value with anti-Aβ antibody 4G8 (incubated 5 days at 37 °C) was “not recognized by SPR”.
